Test results published in publication PMC8901439 (Molecular Cell, 2022).

Experiments:
Type in all cases: biochemical
Dnmt1 [1] = molecular target: T1, Dnmt1 (Mus musculus, UniProt P13864, R1576A/N1580A); test: single-turnover methylation kinetics on hemimethylated 25-mer DNA
Dnmt1 [2] = molecular target: Dnmt1 (Mus musculus, UniProt P13864); test: as above
Dnmt1 [3] = molecular target: T2, Dnmt1 (Mus musculus, UniProt P13864, N1580A); test: as above
Dnmt1 [4] = molecular target: T1, Dnmt1; test: single-turnover azidoalkylation kinetics on hemimethylated 25-mer DNA
Dnmt1 [5] = molecular target: T2, Dnmt1; test: as above

T2 sequence (P13864 291-1620 N1580A): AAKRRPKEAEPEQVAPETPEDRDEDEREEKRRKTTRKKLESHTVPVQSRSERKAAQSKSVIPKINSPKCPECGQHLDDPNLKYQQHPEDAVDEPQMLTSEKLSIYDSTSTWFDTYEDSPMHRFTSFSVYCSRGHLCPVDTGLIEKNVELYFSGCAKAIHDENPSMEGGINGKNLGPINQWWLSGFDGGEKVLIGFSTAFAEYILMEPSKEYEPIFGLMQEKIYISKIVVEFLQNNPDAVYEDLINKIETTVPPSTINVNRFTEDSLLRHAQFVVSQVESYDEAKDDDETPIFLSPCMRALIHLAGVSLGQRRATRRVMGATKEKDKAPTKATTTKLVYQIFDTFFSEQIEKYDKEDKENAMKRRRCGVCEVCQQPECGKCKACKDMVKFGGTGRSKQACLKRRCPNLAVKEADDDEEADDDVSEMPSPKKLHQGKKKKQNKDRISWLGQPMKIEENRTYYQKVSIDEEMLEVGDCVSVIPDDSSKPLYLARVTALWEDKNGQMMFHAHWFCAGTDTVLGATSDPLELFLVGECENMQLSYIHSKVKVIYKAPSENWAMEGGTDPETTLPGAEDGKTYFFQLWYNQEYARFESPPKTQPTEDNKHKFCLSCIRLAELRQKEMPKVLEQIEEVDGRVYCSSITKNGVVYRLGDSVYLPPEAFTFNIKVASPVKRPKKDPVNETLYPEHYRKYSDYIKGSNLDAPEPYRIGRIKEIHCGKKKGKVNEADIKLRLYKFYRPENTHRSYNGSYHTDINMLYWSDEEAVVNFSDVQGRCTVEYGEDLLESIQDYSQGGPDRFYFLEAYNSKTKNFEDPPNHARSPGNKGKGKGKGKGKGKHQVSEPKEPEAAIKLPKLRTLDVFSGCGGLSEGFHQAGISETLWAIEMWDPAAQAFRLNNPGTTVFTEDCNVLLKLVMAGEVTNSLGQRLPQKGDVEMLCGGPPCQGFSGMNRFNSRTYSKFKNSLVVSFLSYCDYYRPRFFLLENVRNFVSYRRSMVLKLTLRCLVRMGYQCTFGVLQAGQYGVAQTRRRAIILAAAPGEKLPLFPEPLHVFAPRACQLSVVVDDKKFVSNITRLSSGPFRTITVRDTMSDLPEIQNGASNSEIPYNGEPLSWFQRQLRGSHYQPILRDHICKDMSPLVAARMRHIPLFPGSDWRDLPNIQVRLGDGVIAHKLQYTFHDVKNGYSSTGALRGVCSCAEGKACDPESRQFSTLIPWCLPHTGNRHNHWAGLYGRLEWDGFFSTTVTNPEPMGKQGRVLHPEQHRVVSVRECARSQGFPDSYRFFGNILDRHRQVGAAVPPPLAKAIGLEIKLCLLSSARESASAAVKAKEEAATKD
T1 sequence (P13864 291-1620 R1576A/N1580A): as the sequence (P13864 291-1620 N1580A) above, with R1286A counted along it
Chain of Dnmt1 (Mus musculus, UniProt P13864) (P13864 291-1620): as the sequence (P13864 291-1620 N1580A) above, with A1290N counted along it

Compound	kchem^AdoMet methylation / min^-1 (Dnmt1 [1]) [min⁻¹]	kchem^AdoMet methylation / min^-1 (Dnmt1 [2]) [min⁻¹]	kchem^AdoMet methylation / min^-1 (Dnmt1 [3]) [min⁻¹]	kchem^Ado-6-azide azidoalkylation / min^-1 (Dnmt1 [4]) [min⁻¹]	kchem^Ado-6-azide azidoalkylation / min^-1 (Dnmt1 [5]) [min⁻¹]
C[S+](CC[C@H](N)C(=O)[O-])C[C@H]1O[C@@H](n2cnc3c(N)ncnc32)[C@H](O)[C@@H]1O (some centres unmarked) [AdoMet]	0.035 ± 0.002	3.0 ± 0.13	0.104 ± 0.002	–	–
[N-]=[N+]=NCCCC#CC[S+](CC[C@H](N)C(=O)O)C[C@H]1O[C@@H](n2cnc3c(N)ncnc32)[C@H](O)[C@@H]1O (mixture of isomers) [Ado-6-azide]	–	–	–	0.27 ± 0.025	1.4 ± 0.13
